Measurements taken from publication PMC9655618 (Cancers, 2022).

Assays:
BT-549 cells = experiment: MTT cell viability assay; type: cell-based, human; conditions: Homo sapiens, BT-549, 72 h, 10%FBS growth media
Method: (§1) Straightforward, the tetrazolium salt 3-(4,5-methyltiazol-2yl-)-2,5diphenyl-tetrazolium bromide (MTT) (Applichen, Darmstadt, Germany) was added to cells, incubated for 2–4 h at 37 °C, and lysed in 10% SDS.

Hs-578T cells = experiment: MTT cell viability assay; type: cell-based, human; conditions: Homo sapiens, Hs-578T, 72 h, 10%FBS growth media
Method: as §1

Ishikawa cells = experiment: MTT cell viability assay; type: cell-based, human; conditions: Homo sapiens, Ishikawa, read-out: IC50 (μM) ISHIKAWA, 72 h, 10%FBS growth media
Method: as §1

MCF-10A cells [1] = experiment: MTT cell viability assay; type: cell-based, human; conditions: Homo sapiens, MCF-10A, 72 h, 10%FBS growth media
Method: as §1

MCF-7 cells [2] = experiment: MTT cell viability assay; type: cell-based, human; conditions: Homo sapiens, MCF7, 72 h, 10%FBS growth media
Method: as §1

MCF-7/BUS cells = experiment: MTT cell viability assay; type: cell-based, human; conditions: Homo sapiens, MCF7/BUS; 72 h, 10%FBS growth media, MTT; read-out: IC50 (μM) MCF-7/BUS
Method: as §1

MDA-MB-231 cells = experiment: MTT cell viability assay; type: cell-based, human; conditions: Homo sapiens, MDA-MB-231, 72 h, 10%FBS growth media
Method: as §1

SK-BR-3 cells = experiment: MTT cell viability assay; type: cell-based, human; conditions: Homo sapiens, SK-BR-3, 72 h, 10%FBS growth media
Method: as §1

PBMC = experiment: MTT cell viability assay; type: cell-based; conditions: Homo sapiens, 72 h, 10%FBS growth media
Method: as §1

T47D cells = experiment: Real-time monitoring of 2D cell growth (IncuCyte); type: cell-based; conditions: Homo sapiens, 120 h, complete estrogenic media (10%FBS), 5 days, AUC
[3] = tested on: T47D cancer cell spheroids; experiment: Real-time monitoring of 3D tumor spheroid growth; type: cell-based, human; conditions: 8 days
[4] = tested on: alkaline phosphatase (ALP) activity in Ishikawa cells; experiment: Alkaline phosphatase assay; type: cell-based, human; conditions: for effect on E2-induced ALP activity: E2 10 nM, 48 h and 72 h
Method: Human endometrium cells ([…]) were cultured in MEM without phenol red with Earle's Salts culture, which was supplemented with estrogen-deprived 10 DCC-FBS du-ring 5 days. […] Cells were washed with ice-cold PBS, and Alkaline Phosphatase (ALP) activity was measured by using ALP Assay Kit (Abcam, Cambridge, MA, USA). The substrate p-nitrophenyl phosphate (pNPP) and the ALP enzyme were used to detect ALP activity by the analysis of the optical density at 405 nm in the iMark microplate Reader (Bio-Rad, Irvine, CA, USA). […] Protein concentration was quantified with the bicinchoninic acid assay (BCA) kit (Bio-Rad).

[5] = tested on: total STAT5 protein level in T47D cells; experiment: Immunoblotting; type: cell-based, human; conditions: 24–72 h
Method: Then, they were washed with ice-cold PBS supplemented with 1 mM ortovanadate and lysed with RIPA buffer containing protease and phosphatase inhibitors (Thermo Fisher Scientific, Waltham, MA, USA). Equal protein amounts were analyzed by SDS–PAGE, and transferred to nitrocellulose membranes (Thermo Fisher Scientific, Waltham, MA, USA), blocked with Tris-buffered saline/0.05% Tween 20 (TBS-T) containing 5% blotto (Merck, Darmstadt, Germany) or 5% BSA for total and phosphorylated proteins, respectively. Immunoblotting was carried out with mouse anti-ERα F-10 (Santa Cruz Biotech, Santa Cruz, CA, USA), rabbit total anti-STAT5 (Cell Signaling Technology, Leiden, The Netherlands) or mouse anti-polyubiquitin (EMD Millipore, Burlington, MA, USA). After washing, membranes were incubated with horseradish peroxidase-conjugated secondary antibodies (Bio-Rad) for 1 h at room temperature. The β-actin antibody (Santa Cruz Biotech, CA, USA) was used as the loading control. Finally, protein bands were visualized by using Clarity™ Western ECL Substrate (Bio-Rad) in the ChemiDoc XRS system (Bio-Rad) and were analyzed with Quantity One software (Bio-Rad).

[6] = molecular target: T1, ERα protein in T47D E2-deprived cells (Homo sapiens, UniProt P03372); experiment: Immunofluorescence (confocal microscopy); type: cell-based; conditions: 5 µM 24 h, then E2 1 nM 30 min
T1 construct: ERα protein expression were also explored in T47D E2-deprived BC cells; endogenous in cells; host or cells: T47D (steroid-deprived)
Method: T47D cells were seeded with steroid-deprived FBS (10% DCC-FBS) RPMI medium supplemented with L-Glutamine/HEPES/sodium pyruvate/PEST. Then, cells were seeded at 175,000 cells/well in 5% DCC-FBS in 6-well plates containing 22 × 22 mm coverslips (Menzelgläser, vWR, Radnor, PA, USA). […] After this, cells were washed with PBS, fixed in 4% paraformaldehide (PFA; Sigma-Aldrich, St. Louis, MO, USA) for 15 min, blocked-permeabilized in PBS-0.5% BSA-0.1% Triton X-100 (Thermo Scientific, Waltham, MA, USA) for 1 h, and, finally, incubated with mouse ERα (Santa Cruz Biotech, CA, USA) and rabbit β-catenin (C2206 Sigma-Aldrich, St. Louis, MO, USA) primary antibodies in the same blocking solution overnight at 4 °C within a hand-made humid chamber. After three washing with PBS-0.5% BSA-0.1% Triton X-100 (Thermo Scientific, Waltham, MA, USA), cells were incubated with anti-mouse Alexa fluor 488 (Life Technologies, CA, USA) or anti-rabbit Alexa 647 (Life Technologies, Carlsbad, CA, USA) secondary antibodies, containing DAPI (4′,6-diamidino-2-phenylindole; Sigma-Aldrich, St. Louis, MO, USA), for 1 h at room temperature. Finally, slides were mounted with Fluormount-G® (Thermo Fisher Scientific, Waltham, MA, USA), and cells were visualized using a confocal microscope Zeiss LSM 800 (Carl Zeiss AG, Jena, Germany). The fluorescent signal was quantified by using a segmentation method for image analysis.

MCF-10A cells [7] = experiment: Drug combination assay with 4-OHTAM (MTT); conditions: Homo sapiens, 72 h, read-out: IC50, cell viability inhibition
Method: (§2) Cells were seeded at 5000 and 7500 cells, per well, respectively, and cell viability was assessed by MTT assays 72 h after treatment. Briefly, cells were incubated with constant ratio combinations of indicated test compounds by doubling dilutions of the individual drugs over a wide range of concentrations [43]. […] Dose-effect curves of the individual or combined compounds were plotted and assessed by the median effect method of Chou and Talalay [43] using Calcusyn software 2.0 (Biosoft, Cambridge, UK), thus obtaining the combination index (CI) values. CI values less than 1, equal to 1, and greater than 1 indicated synergism, addition, and antagonism, respectively.

MCF-7 cells [8] = experiment: Drug combination assay with 4-OHTAM (MTT, Chou-Talalay); conditions: for IC50: Homo sapiens, MCF7, 72 h, read-out: IC50, cell viability inhibition, single agent
Method: as §2

[9] = tested on: glucocorticoid receptor (GR)-dependent transcriptional activity, MDA-kb2 cells; experiment: GR-mediated transcription, luciferase reporter in MDA-kb2 cells (dexamethasone); conditions: 100 nM Dexamethasone; compounds 1–10 µM
[10] = combination with 4-OHTAM, constant ratio, 72 h, CI <1 synergism

How did the IC50 (BT-549 cells) turn out when `Cc1ccc(C2=CC(O)(c3ccccc3)N(Cc3ccccc3)C2=O)cc1C` (centres unmarked) [compound 32, 1-benzyl-3-(3,4-dimethylphenyl)-5-hydroxy-5-phenyl-1H-pyrrol-2(5H)-one] was run?
The IC50 was 4.89 ± 0.96 µM.

What about the IC50 (Hs-578T cells) of the same compound?
The IC50 was > 10 µM.

And the IC50 (Ishikawa cells)?
Its IC50 is 0.27 ± 0.09 µM.

And the IC50 (MCF-10A cells [1])?
The IC50 was 0.08 µM.

And the IC50 (MCF-7 cells [2])?
Its IC50 is 2.54 ± 0.49 µM.

And the IC50 (MCF-7/BUS cells)?
The IC50 was 5.32 ± 2.09 µM.

What about the IC50 (MDA-MB-231 cells) of the same compound?
The IC50 was 7.63 ± 2.38 µM.

What about the IC50 (SK-BR-3 cells) of the same compound?
The IC50 was 1.51 ± 0.09 µM.

And the IC50 (PBMC)?
The IC50 was > 30 µM.

And the IC50 (T47D cells)?
The IC50 was 5340 ± 2470 nM.

What about the “effect on spheroid growth” value [3] of the same compound?
The value was “reduced the growth of T47D cancer cell spheroids”.

And the “effect on E2-induced ALP activity” value [4]?
Its value is “inhibited E2-induced ALP activity”.

And the Emax ([4]; Homo sapiens, Ishikawa, read-out: ALP activity, % of E2-induced maximal activity (Emax))?
Its Emax is 18%.

And the “effect on total STAT5 protein level” value [5]?
The value was “this effect was not provoked”.

And the “effect on ERα protein levels by confocal microscopy” value [6]?
Its value is “showed no effects”.

And the IC50 (MCF-10A cells [7])?
The IC50 was 350 nM.

And the IC50 (MCF-7 cells [8])?
Its IC50 is 690 nM.

And the “CI for ED25” value (MCF-7 cells [8]; [10])?
The value was 0.762 ± 0.02.

And the “CI for ED75” value (MCF-7 cells [8]; [10])?
The value was 0.6725 ± 0.06.

What about the “CI for ED90” value (MCF-7 cells [8]; [10]) of the same compound?
Its value is 0.6395 ± 0.09.

What about the “effect on DEX-induced luciferase activity” value [9] of the same compound?
Its value is “Neither 4-OHTAM nor compounds 32 or 35 displayed cross-activation”.

For `O=C1C(c2ccc([N+](=O)[O-])cc2)=CC(O)(c2ccccc2)N1Cc1ccccc1` (centres unmarked) [compound 35, 1-benzyl-5-hydroxy-3-(4-nitrophenyl)-5-phenyl-1H-pyrrol-2(5H)-one], which IC50 (BT-549 cells) is on record?
The IC50 was 4.19 µM.

What about the IC50 (Hs-578T cells) of the same compound?
Its IC50 is 8.22 ± 1.78 µM.

And the IC50 (Ishikawa cells)?
The IC50 was 1.29 ± 0.38 µM.

And the IC50 (MCF-10A cells [1])?
Its IC50 is 3.16 ± 0.09 µM.

And the IC50 (MCF-7 cells [2])?
Its IC50 is 2.59 ± 0.34 µM.

What about the IC50 (MCF-7/BUS cells) of the same compound?
Its IC50 is 2.64 ± 0.88 µM.

What about the IC50 (MDA-MB-231 cells) of the same compound?
The IC50 was 9.08 ± 0.93 µM.

And the IC50 (SK-BR-3 cells)?
The IC50 was 2 ± 0.18 µM.

And the IC50 (PBMC)?
The IC50 was 17.3 ± 6.48 µM.

What about the IC50 (T47D cells) of the same compound?
Its IC50 is 6980 ± 1150 nM.

What about the “effect on spheroid growth” value [3] of the same compound?
The value was “reduced the growth of T47D cancer cell spheroids”.

And the “effect on E2-induced ALP activity” value [4]?
The value was “inhibited E2-induced ALP activity”.

What about the “ALP activity, % of E2-induced maximal activity (Emax)” value ([4]; absence of E2) of the same compound?
Its value is “did not affect basal”.

What about the “effect on total STAT5 protein level” value [5] of the same compound?
Its value is “this effect was not provoked”.

What about the “effect on ERα protein levels by confocal microscopy” value [6] of the same compound?
Its value is “significantly decreased ERα protein levels both in nuclei and cytoplasmic compartments”.

And the IC50 (MCF-10A cells [7])?
The IC50 was > 560 nM.

What about the IC50 (MCF-7 cells [8]) of the same compound?
Its IC50 is 2270 nM.

And the “CI for ED75” value (MCF-7 cells [8]; [10])?
The value was 0.26 ± 0.07.

What about the “CI for ED90” value (MCF-7 cells [8]; [10]) of the same compound?
Its value is 0.32 ± 0.13.

What about the “effect on DEX-induced luciferase activity” value [9] of the same compound?
Its value is “Neither 4-OHTAM nor compounds 32 or 35 displayed cross-activation”.
